Source: ChEMBL document CHEMBL1147078, “Triptolide is a traditional Chinese medicine-derived inhibitor of polycystic kidney disease” (Proc Natl Acad Sci U S A, 2007)
Active and inactive are the calls of the source. The calls are words filed in the database; no cut-off is given here.

How the values were obtained:
Mus musculus [1] = species: Mus musculus; assay: Growth inhibition of PC2 expressing mouse Pkd2+/- cells as cell death at 100 nM after 24 hrs; type: functional
Pkd = assay: Increase in calcium response in mouse Pkd cells at […]; type: functional, cell-based
Mus musculus [2] = species: Mus musculus; assay: Increase in calcium release in mouse Pkd1-/- cells at 50 uM in presence of RyR antagonist dantrolene; type: functional, cell-based
Mus musculus [3] = assay: Toxicity in C57BL/6 mouse embryos at >=0.1 mg/kg/day, ip; type: organism-based; conditions: in vivo
Mus musculus [4] = species: Mus musculus; assay: Increase in calcium release in mouse Pkd2-/- cells at 100 nM; type: functional, cell-based
Mus musculus [5] = species: Mus musculus; assay: Increase in PC2 dependent calcium release in mouse Pkd1-/- cells at 100 nM; type: functional, cell-based
[6] = Growth inhibition of PC2 reconstituted mouse Pkd2-/- cells assessed as cell death at 100 nM after 24 hrs; type: functional; parameters: scale not given: the % may be the effect or the level left
[7] = Growth inhibition of mouse Pkd2-/- PC2-null cells assessed as cell death at 100 nM after 48 hrs; type: functional; parameters: scale not given: the % may be the effect or the level left
Mus musculus [8] = assay: Toxicity in C57BL/6 mouse embryos at […], ip; type: organism-based; parameters: route intraperitoneal; conditions: in vivo
Mus musculus [9] = species: Mus musculus; assay: Induction of cell growth arrest in mouse Pkd1-/- cells in presence of calcium; type: functional, cell-based
Mus musculus [10] = species: Mus musculus; assay: Increase in PC2 dependent calcium release in mouse Pkd1+/- cells at 100 nM; type: functional, cell-based
Mus musculus [11] = species: Mus musculus; assay: Increase in p21CIP/WAF expression in mouse Pkd1-/- cells at 100 nM after 96 hrs by Western blot analysis; type: functional, cell-based
[12] = Growth inhibition of mouse Pkd2-/- PC2-null cells assessed as cell viability at 100 nM after 24 hrs; type: functional; conditions: read-out: Activity
Mus musculus [13] = assay: Effect on Pkd1+/- and Pkd1+/- inter crossed mouse assessed as decrease in kidney cyst burden in […] genotypic embryos at 0.07 mg/kg, ip from E10.5 stage to untill birth relative to control; type: functional, organism-based; parameters: dose 0.07 mg/kg

CC(C)[C@]12O[C@H]1[C@@H]1O[C@]13[C@]1(O[C@H]1C[C@H]1C4=C(CC[C@@]13C)C(=O)OC4)[C@@H]2O [TRIPTOLIDE]
Activity (Mus musculus [1]): Active
Activity (Pkd): inactive
Activity (Mus musculus [2]): Active
Activity (Mus musculus [3]): Toxic
Activity (Mus musculus [4]): inactive
Activity (Mus musculus [5]): Active
Activity [6]: >80%
Activity [7]: >50%
Activity (Mus musculus [8]): Non-toxic
Activity (Mus musculus [9]): Active
Activity (Mus musculus [10]): Active
Activity (Mus musculus [11]): Active
viability at 0.1 µM [12]: > 90%
Activity (Mus musculus [13]): Active
